Patent US20260347372A1, “SMALL MOLECULE INHIBITORS OF KRAS G12D MUTANT” (MERCK SHARP & DOHME LLC, priority 2023, published 2026)

Key:
PANC08.13 cells = molecular target: T1, PANC08.13 cells (Homo sapiens, UniProt P01116, G12D); assay: Cellular phospho-ERK assay, PANC08.13 cells (KRAS G12D); assay type: cell-based; conditions: 2 hours, read-out: PANCO 813 pERK IC50
T1 construct: p-ERK/total ERK AlphaSureFire read-out
Method: Procedure for Cellular Phospho-ERK Assay in KRAS Wild Type and Mutant (G12D, G12V) Cell Lines
PANC08.13 cells (ATCC® CRL-2551™), containing homozygous KRAS-G12D activating mutation, were cultured in growth medium made of RPMI1640-GlutaMAX™-I (ThermoFisher Scientific 61870) containing 15% heat inactivated fetal bovine serum (ThermoFisher Scientific 10091148)). AsPC-1 cells (ATCC® CRL-1682™), containing homozygous KRAS-G12D activating mutation, were cultured in T150 flask in growth medium (RPMI medium 1640-GlutaMAX™-I (ThermoFisher Scientific 61870) containing 10% fetal bovine serum (ThermoFisher Scientific 10091148)).
Cells for the assay were harvested in growth medium after TrypLE (ThermoFisher scientific 12604021) digestion and were seeded in a 384-well collagen coated cell culture plate (Corning 356702) at a density of 10,000-15,000 cells/20 μL/well, and incubated at 37° C., 5% CO2 overnight. The compound (with 10 mM stock concentration) dose-response titrations were prepared [30 μM final ERK detection assay concentration and 1:3 dilutions, 10-point dose response] and appropriate amounts (270 nL) of test compounds were dispensed in a 384-well intermediate plate using an Echo 550 liquid handler. 30 μL/well of RPMI medium 1640-GlutaMAX™-I was added to the intermediate plate and the contents of the intermediate plate (10 μL/well) were then transferred to the 384-well collagen coated cell culture plate, which was incubated at 37° C., 5% CO2 for 2 hours. After removal of medium from the collagen coated cell culture plate, cells were lysed in lysis buffer from Alpha SureFire® Ultra™ Multiplex p-ERK and total ERK assay kit (PerkinElmer MPSU-PTERK) containing Halt™ Protease and Phosphatase inhibitor cocktail (ThermoFisher Scientific 78446) at room temperature with constant shaking at 300 rpm for 30 minutes. The cell lysates were then transferred to an OptiPlate-384 plate (PerkinElmer 6005620), and the phosphorylation of ERK (p-ERK) and total ERK levels were detected by Alpha SureFire® Ultra™ Multiplex p-EEK kit and total ERK assay kit (PerkinElmer MPSU-PTERK) following the manufacturer's protocol. Assay plates were read on a EnVision Multimode Plate Reader (PerkinElmer), and the ratio of p-ERK vs. total ERK in each well was used as the final readout. Dose response curves were analyzed using a 4-parameter logistic model to calculate IC50 values using Spotfire software.

KRAS G13D = KRAS G13D (Homo sapiens, UniProt P01116, G13D); assay: SOS-catalyzed nucleotide exchange assay, KRAS G13D (Procedure A); assay type: biochemical; conditions: GNE
Sequence of KRAS G13D (P01116 with tags, fused parts or gaps isoform P01116-2 G13D): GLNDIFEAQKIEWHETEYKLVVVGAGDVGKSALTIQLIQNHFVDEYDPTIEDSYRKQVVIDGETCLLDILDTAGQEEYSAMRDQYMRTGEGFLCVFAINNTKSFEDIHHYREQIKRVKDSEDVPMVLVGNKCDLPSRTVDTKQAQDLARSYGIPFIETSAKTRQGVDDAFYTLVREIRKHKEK
Summary of the method: (§1)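 Preformed TR-FRET complex of biotinylated KRAS (G12C carries C51S/C80L/C118S; others native sequence), Bodipy-GDP and Tb-streptavidin preincubated with compound 60 min at room temperature. Exchange started with human SOS plus 3 mM GTP for 60 min (G13D 30 min). Final RAS/SOS: G12C 3/40 nM; WT, G12D 1/40 nM; G13D 1.25/0 nM. 520/495 nm ratio normalised, fitted to four-parameter logistic.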

HRAS = HRAS (Homo sapiens, UniProt P01112); assay: SOS-catalyzed nucleotide exchange assay, HRAS (Procedure A); assay type: biochemical; conditions: GNE
Sequence of HRAS (P01112 with tags, fused parts or gaps): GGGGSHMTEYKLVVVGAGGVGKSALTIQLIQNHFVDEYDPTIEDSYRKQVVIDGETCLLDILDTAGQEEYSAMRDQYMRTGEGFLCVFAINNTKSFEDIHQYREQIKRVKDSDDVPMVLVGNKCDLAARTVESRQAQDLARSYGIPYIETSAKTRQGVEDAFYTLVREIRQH
Summary of the method: (§2)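 Compounds were preincubated 60 min with a biotinylated RAS·Bodipy-GDP/Tb-streptavidin TR-FRET complex, and exchange was started with human SOS plus 3 mM GTP at RT. RAS/SOS: G12C 3 nM/40 nM, WT and G12D 1 nM/40 nM, all 60 min; G13D 1.25 nM/0 nM, 30 min. 520/495 ratio normalized to DMSO and saturating inhibitor, four-parameter fit.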

KRAS G12C = KRAS G12C (Homo sapiens, UniProt P01116, C118S/C51S/C80L/G12C); assay: SOS-catalyzed nucleotide exchange assay, KRAS G12C (Procedure A); assay type: biochemical; conditions: GNE
Sequence of KRAS G12C (P01116 with tags, fused parts or gaps isoform P01116-2 G12C/C51S/C80L/C118S): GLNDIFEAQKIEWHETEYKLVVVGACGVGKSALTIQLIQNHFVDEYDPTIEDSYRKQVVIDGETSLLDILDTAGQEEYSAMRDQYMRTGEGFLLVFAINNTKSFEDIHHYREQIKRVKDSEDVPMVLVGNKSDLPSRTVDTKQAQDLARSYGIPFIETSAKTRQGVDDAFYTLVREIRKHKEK
Summary of the method: as §1

KRAS WT = KRAS WT (Homo sapiens, UniProt P01116); assay: SOS-catalyzed nucleotide exchange assay, KRAS WT (Procedure A); assay type: biochemical; conditions: GNE
Sequence of KRAS WT (P01116 with tags, fused parts or gaps isoform P01116-2): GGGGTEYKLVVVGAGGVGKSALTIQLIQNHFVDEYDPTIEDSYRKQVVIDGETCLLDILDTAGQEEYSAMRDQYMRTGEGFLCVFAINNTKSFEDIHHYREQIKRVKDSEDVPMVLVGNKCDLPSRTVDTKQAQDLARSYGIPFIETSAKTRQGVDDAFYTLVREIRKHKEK
Summary of the method: as §1

KRAS G12V = KRAS G12V (Homo sapiens, UniProt P01116, G12V); assay: SOS-catalyzed nucleotide exchange assay, KRAS G12V (Procedure A); assay type: biochemical; conditions: GNE
Sequence of KRAS G12V (P01116 with tags, fused parts or gaps isoform P01116-2 G12V): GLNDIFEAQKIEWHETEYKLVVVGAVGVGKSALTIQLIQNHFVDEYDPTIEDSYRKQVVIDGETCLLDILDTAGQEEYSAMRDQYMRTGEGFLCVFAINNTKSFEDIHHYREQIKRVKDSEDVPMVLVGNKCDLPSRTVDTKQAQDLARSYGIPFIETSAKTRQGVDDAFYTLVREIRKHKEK
Summary of the method: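 Biotinylated KRAS G12V was loaded with Bodipy-GDP alongside Terbium-streptavidin to form a TR-FRET complex, which was preincubated with compounds for 60 minutes in 384-well plates. Human SOS protein and unlabeled GTP were then added for 90 minutes, giving final concentrations of 1.25 nM KRAS-G12V, 160 nM SOS and 3 mM GTP. The 520/495 nm emission ratio was read on an Envision.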

NRAS = NRAS (Homo sapiens, UniProt P01111); assay: SOS-catalyzed nucleotide exchange assay, NRAS (Procedure A); assay type: biochemical; conditions: GNE
Sequence of NRAS (P01111 with tags, fused parts or gaps): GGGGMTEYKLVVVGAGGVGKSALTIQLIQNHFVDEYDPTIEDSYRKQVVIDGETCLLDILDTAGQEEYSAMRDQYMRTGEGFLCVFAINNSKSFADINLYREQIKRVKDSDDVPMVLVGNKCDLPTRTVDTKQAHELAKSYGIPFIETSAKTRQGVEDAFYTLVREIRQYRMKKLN
Summary of the method: as §2

KRAS G12D = KRAS G12D (Homo sapiens, UniProt P01116, G12D); assay: SOS-catalyzed nucleotide exchange assay, KRAS G12D (Procedure A); assay type: biochemical; conditions: guanine nucleotide exchange (GNE)
Sequence of KRAS G12D (P01116 with tags, fused parts or gaps isoform P01116-2 G12D): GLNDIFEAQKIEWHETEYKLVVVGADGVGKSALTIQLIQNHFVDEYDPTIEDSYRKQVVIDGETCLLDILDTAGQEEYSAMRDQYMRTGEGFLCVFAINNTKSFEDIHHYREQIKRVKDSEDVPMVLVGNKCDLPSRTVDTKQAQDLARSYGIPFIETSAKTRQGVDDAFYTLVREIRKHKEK
Summary of the method: as §1

AsPC-1 cells = molecular target: T2, AsPC-1 cells (Homo sapiens, UniProt P01116, G12D); assay: Cellular phospho-ERK assay, AsPC-1 cells (KRAS G12D); assay type: cell-based; conditions: 2 hours, read-out: AsPC1 pERK IC50
T2 construct: p-ERK/total ERK AlphaSureFire read-out
T2 sequence (P01116 1-188 isoform P01116-2 G12D): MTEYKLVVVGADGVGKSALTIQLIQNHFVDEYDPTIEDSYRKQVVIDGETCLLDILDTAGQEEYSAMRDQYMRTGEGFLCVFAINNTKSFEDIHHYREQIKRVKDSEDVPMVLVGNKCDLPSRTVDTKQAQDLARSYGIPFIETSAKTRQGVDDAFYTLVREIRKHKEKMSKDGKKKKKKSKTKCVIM
Summary of the method: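 PANC08.13 or AsPC-1 cells (homozygous KRAS G12D) were seeded overnight, then treated for 2 h at 37 °C with a 10-point 1:3 titration from 30 μM. Lysates were assayed by AlphaLISA SureFire for p-ERK and total ERK. IC50 came from a 4-parameter fit of the p-ERK/total ERK ratio.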

T1 sequence (P01116 1-188 isoform P01116-2 G12D): as above

Row | Compound | IC50 (PANC08.13 cells) | IC50 (KRAS G13D) | IC50 (HRAS) | IC50 (KRAS G12C) | IC50 (KRAS WT) | IC50 (KRAS G12V) | IC50 (NRAS) | IC50 (KRAS G12D) | IC50 (AsPC-1 cells)
1 | Cc1cc2[nH]nc(C#N)c2c(-c2nccc3c4c(N5C[C@H]6CC[C@@H](C5)N6)nc(OC[C@@]56CCCN5C[C@H](F)C6)nc4n(C)c23)c1C(F)(F)F (single isomer, unassigned) [Ex-2] | 1630 nM | 2360 nM | > 11100 nM | > 11100 nM | > 11100 nM | > 11100 nM | > 11100 nM | 43.6 nM | 15100 nM
2 | Cc1cc2[nH]ncc2c(-c2nccc3c4c(N5C[C@H]6CC[C@@H](C5)N6)nc(OC[C@@]56CCCN5C[C@H](F)C6)nc4n(C)c23)c1C(F)(F)F (single isomer, unassigned) [Ex-1] | 139 nM | 1640 nM | > 11100 nM | 652 nM | 6500 nM | 3560 nM | > 11100 nM | 14.3 nM | 455 nM
3 | C#Cc1c(F)ccc2cc(O)cc(-c3nccc4c5c(N6C[C@H]7CC[C@@H](C6)N7)nc(OC[C@@]67CCCN6C[C@H](F)C7)nc5n(C)c34)c12 [Ex-8, 4-(4-((1R,5S)-3,8-diazabicyclo[3.2.1]octan-3-yl)-2-(((2R,7aS)-2-fluorotetrahydro-1H-pyrrolizin-7a(5H)-yl)methoxy)-9-methyl-9H-pyrido[4′,3′:4,5]pyrrolo[2,3-d]pyrimidin-8-yl)-5-ethynyl-6-fluoronaphthalen-2-ol] | 63.8 nM | 17.8 nM | > 11100 nM | 25.2 nM | 48.1 nM | 62.6 nM | > 11100 nM | 1.81 nM | 138 nM
4 | Cc1cc2[nH]ncc2c(-c2nccc3c4c(N5C[C@H]6CC[C@@H](C5)N6)nc(OC[C@@]56CCCN5C[C@H](F)C6)nc4n(C)c23)c1C(F)F (single isomer, unassigned) [Ex-3] | 244 nM | 3320 nM | > 11100 nM | 919 nM | 9310 nM | 5140 nM | > 11100 nM | 97.5 nM | 965 nM

Results, then the molecule that gave them:

Row | IC50 (PANC08.13 cells) | IC50 (KRAS G13D) | IC50 (HRAS) | IC50 (KRAS G12C) | IC50 (KRAS WT) | IC50 (KRAS G12V) | IC50 (NRAS) | IC50 (KRAS G12D) | IC50 (AsPC-1 cells) | Compound
5 | 192 nM | 604 nM | > 11100 nM | 647 nM | 4930 nM | 6880 nM | > 11100 nM | 7.11 nM | 398 nM | C#Cc1cccc2cccc(-c3nccc4c3sc3nc(OC[C@@]56CCCN5C[C@H](F)C6)nc(N5C[C@H]6CC[C@@H](C5)N6)c34)c12 [Ex-10, 4-((1R,5S)-3,8-diaza-bicyclo[3.2.1]oc-tan-3-yl)-8-(8-ethynylnaphthalen-1-yl)-2-(((2R,7aS)-2-fluoro-tetrahydro-1H-pyrrolizin-7a(5H)-yl)methoxy)pyri-do[4′,3′:4,5]thi-eno[2,3-d]py-rimidine]
6 | 220 nM | 1830 nM | > 11100 nM | 665 nM | 9560 nM | 8350 nM | > 11100 nM | 13.7 nM | 582 nM | FC(F)c1c(Cl)cc2[nH]ncc2c1-c1nccc2c1sc1nc(OC[C@@]34CCCN3C[C@H](F)C4)nc(N3C[C@H]4CC[C@@H](C3)N4)c12 [Ex-13, 4-((1R,5S)-3,8-diazabicyclo[3.2.1]octan-3-yl)-8-(6-chloro-5-(difluoromethyl)-1H-indazol-4-yl)-2-(((2R,7aS)-2-fluorotetrahydro-1H-pyrrolizin-7a(5H)-yl)methoxy)pyrido[4′,3′:4,5]thieno [2,3-d]pyrimidine]
7 | 88.9 nM | 723 nM | > 11100 nM | 589 nM | 5810 nM | 2070 nM | > 11100 nM | 6.41 nM | 200 nM | Cc1cc2[nH]ncc2c(-c2nccc3c2sc2nc(OC[C@@]45CCCN4C[C@H](F)C5)nc(N4C[C@H]5CC[C@@H](C4)N5)c23)c1C(F)(F)F [Ex-12, 4-((1R,5S)-3,8-diazabicyclo[3.2.1]octan-3-yl)-2-(((2R,7aS)-2-fluorotetrahydro-1H-pyrrolizin-7a(5H)-yl)methoxy)-8-(6-methyl-5-(trifluoromethyl)-1H-indazol-4-yl)pyrido[4′,3′:4,5]thieno[2,3-d]pyrimidine]
8 | 250 nM | 1050 nM | > 11100 nM | 755 nM | 9940 nM | > 11100 nM | > 11100 nM | 23.4 nM | 2200 nM | Cc1cc2[nH]nc(C#N)c2c(-c2nccc3c2sc2nc(OC[C@@]45CCCN4C[C@H](F)C5)nc(N4C[C@H]5CC[C@@H](C4)N5)c23)c1C(F)(F)F [Ex-19, 4-(4-((1R,5S)-3,8-diazabicy-clo[3.2.1]oc-tan-3-yl)-2-(((2R,7aS)-2-fluoro-tetrahydro-1H-pyrrolizin-7a(5H)-yl)methoxy)pyri-do[4′,3′:4,5]thieno [2,3-d]pyrimidin-- 8-yl)-6-methyl-5-(trifluoromethyl)-- 1H-indazole-3-carbonitrile]
